Source: PubChem BioAssay AID2060607 (Molecular Pharmacology Branch, DTP, NCI, 2025)

Tested on: 876862-298-R-J1-PDC complex spheroids, viability % test/control
Test: Anticancer human tumor 876862-298-R-J1-PDC patient-derived endometrial carcinoma cell line growth inhibition [CLK]
Conditions: for IC50: curve of first compound; for viability, T/C: stronger effect = lower value
Summary of the method: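 Multi-cell-type spheroids combined patient-derived tumor cells with HUVEC endothelial cells and human mesenchymal stem cells. Paired agents were dosed in half-log steps down from about clinical Cmax, or from 10 microM where Cmax was unknown.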

[1] = second compound 0.0316 µM, first compound 0.00949 µM
[2] = second compound 0.0316 µM, first compound 0.03 µM
[3] = second compound 0.0316 µM, first compound 0.0949 µM
[4] = second compound 0.0316 µM, first compound 0.3 µM
[5] = second compound 0.1 µM, first compound 0.00949 µM
[6] = second compound 0.1 µM, first compound 0.03 µM
[7] = second compound 0.1 µM, first compound 0.0949 µM
[8] = second compound 0.1 µM, first compound 0.3 µM
[9] = second compound 0.316 µM, first compound 0.00949 µM
[10] = second compound 0.316 µM, first compound 0.03 µM
[11] = second compound 0.316 µM, first compound 0.0949 µM
[12] = second compound 0.316 µM, first compound 0.3 µM
[13] = second compound 1 µM, first compound 0.00949 µM
[14] = second compound 1 µM, first compound 0.03 µM
[15] = second compound 1 µM, first compound 0.0949 µM
[16] = second compound 1 µM, first compound 0.3 µM
[17] = second compound 3.16 µM, first compound 0.00949 µM
[18] = second compound 3.16 µM, first compound 0.03 µM
[19] = second compound 3.16 µM, first compound 0.0949 µM
[20] = second compound 3.16 µM, first compound 0.3 µM
[21] = second compound 10 µM, first compound 0.00949 µM
[22] = second compound 10 µM, first compound 0.03 µM
[23] = second compound 10 µM, first compound 0.0949 µM
[24] = second compound 10 µM, first compound 0.3 µM
[25] = second compound 0.0316 µM, first compound 0.0316 µM
[26] = second compound 0.0316 µM, first compound 0.1 µM
[27] = second compound 0.0316 µM, first compound 0.316 µM
[28] = second compound 0.0316 µM, first compound 1 µM
[29] = second compound 0.0316 µM, first compound 3.16 µM
[30] = second compound 0.0316 µM, first compound 10 µM
[31] = second compound 0.1 µM, first compound 0.0316 µM
[32] = second compound 0.1 µM, first compound 0.1 µM
[33] = second compound 0.1 µM, first compound 0.316 µM
[34] = second compound 0.1 µM, first compound 1 µM
[35] = second compound 0.1 µM, first compound 3.16 µM
[36] = second compound 0.1 µM, first compound 10 µM
[37] = second compound 0.316 µM, first compound 0.0316 µM
[38] = second compound 0.316 µM, first compound 0.1 µM
[39] = second compound 0.316 µM, first compound 0.316 µM
[40] = second compound 0.316 µM, first compound 1 µM
[41] = second compound 0.316 µM, first compound 3.16 µM
[42] = second compound 0.316 µM, first compound 10 µM
[43] = second compound 1 µM, first compound 0.0316 µM
[44] = second compound 1 µM, first compound 0.1 µM
[45] = second compound 1 µM, first compound 0.316 µM
[46] = second compound 1 µM, first compound 1 µM
[47] = second compound 1 µM, first compound 3.16 µM
[48] = second compound 1 µM, first compound 10 µM
[49] = second compound 3.16 µM, first compound 0.0316 µM
[50] = second compound 3.16 µM, first compound 0.1 µM
[51] = second compound 3.16 µM, first compound 0.316 µM
[52] = second compound 3.16 µM, first compound 1 µM
[53] = second compound 3.16 µM, first compound 3.16 µM
[54] = second compound 3.16 µM, first compound 10 µM
[55] = second compound 10 µM, first compound 0.0316 µM
[56] = second compound 10 µM, first compound 0.1 µM
[57] = second compound 10 µM, first compound 0.316 µM
[58] = second compound 10 µM, first compound 1 µM
[59] = second compound 10 µM, first compound 3.16 µM
[60] = second compound 10 µM, first compound 10 µM
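Also: spheroids exposed to drugs for 7 days before readout.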
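For viability, T/C in this document: 100% = DMSO vehicle control wells.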

Compound: CC(C)CC(NC(=O)C(Cc1ccccc1)NC(=O)c1cnccn1)B(O)O (stereo not drawn) + CNC(=O)c1ccc(Nc2nc(OC3CCCC3)c3c(-c4ccc5nc(C)oc5c4)c[nH]c3n2)c(OC)c1
- IC50 (second compound 0.0316 µM): 1.53 nM
- IC50 (second compound 0.1 µM): < 0.949 nM
- IC50 (second compound 0.316 µM): < 0.949 nM
- IC50 (second compound 1 µM): < 0.949 nM
- IC50 (second compound 3.16 µM): < 0.949 nM
- IC50 (second compound 10 µM): < 0.949 nM
- viability, T/C (second compound 0.0316 µM, first compound 0.000949 µM): 78.1%
- viability, T/C (second compound 0.0316 µM, first compound 0.003 µM): 10.6%
- viability, T/C [1]: 0.67%
- viability, T/C [2]: 0.44%
- viability, T/C [3]: 1.97%
- viability, T/C [4]: 1.37%
- viability, T/C (second compound 0.1 µM, first compound 0.000949 µM): 47.3%
- viability, T/C (second compound 0.1 µM, first compound 0.003 µM): 7.8%
- viability, T/C [5]: 0.68%
- viability, T/C [6]: 0.53%
- viability, T/C [7]: 1.95%
- viability, T/C [8]: 0.42%
- viability, T/C (second compound 0.316 µM, first compound 0.000949 µM): 43.2%
- viability, T/C (second compound 0.316 µM, first compound 0.003 µM): 5.92%
- viability, T/C [9]: 1.95%
- viability, T/C [10]: 0.56%
- viability, T/C [11]: 1.66%
- viability, T/C [12]: 0.96%
- viability, T/C (second compound 1 µM, first compound 0.000949 µM): 38.4%
- viability, T/C (second compound 1 µM, first compound 0.003 µM): 4.5%
- viability, T/C [13]: 0.69%
- viability, T/C [14]: 0.62%
- viability, T/C [15]: 1.84%
- viability, T/C [16]: 0.22%
- viability, T/C (second compound 3.16 µM, first compound 0.000949 µM): 27.6%
- viability, T/C (second compound 3.16 µM, first compound 0.003 µM): 3.22%
- viability, T/C [17]: 0.41%
- viability, T/C [18]: 0.44%
- viability, T/C [19]: 1.98%
- viability, T/C [20]: 1.11%
- viability, T/C (second compound 10 µM, first compound 0.000949 µM): 23.3%
- viability, T/C (second compound 10 µM, first compound 0.003 µM): 2.73%
- viability, T/C [21]: 0.85%
- viability, T/C [22]: 0.4%
- viability, T/C [23]: 0.82%
- viability, T/C [24]: 1.17%

Compound: CC1(C)CCC(CN2CCN(c3ccc(C(=O)NS(=O)(=O)c4ccc(NCC5CCOCC5)c([N+](=O)[O-])c4)c(Oc4cnc5[nH]ccc5c4)c3)CC2)=C(c2ccc(Cl)cc2)C1 + CNC(=O)c1ccc(Nc2nc(OC3CCCC3)c3c(-c4ccc5nc(C)oc5c4)c[nH]c3n2)c(OC)c1
- IC50 (second compound 0.0316 µM): 5400 nM
- IC50 (second compound 0.1 µM): 473 nM
- IC50 (second compound 0.316 µM): < 31.6 nM
- IC50 (second compound 1 µM): < 31.6 nM
- IC50 (second compound 3.16 µM): < 31.6 nM
- IC50 (second compound 10 µM): < 31.6 nM
- viability, T/C [25]: 69.5%
- viability, T/C [26]: 88.6%
- viability, T/C [27]: 83%
- viability, T/C [28]: 90.6%
- viability, T/C [29]: 86.1%
- viability, T/C [30]: 11.2%
- viability, T/C [31]: 48.2%
- viability, T/C [32]: 52.2%
- viability, T/C [33]: 52.3%
- viability, T/C [34]: 49.2%
- viability, T/C [35]: 39.2%
- viability, T/C [36]: 11.8%
- viability, T/C [37]: 45.1%
- viability, T/C [38]: 39.5%
- viability, T/C [39]: 47.9%
- viability, T/C [40]: 46.1%
- viability, T/C [41]: 35.9%
- viability, T/C [42]: 9.32%
- viability, T/C [43]: 37.7%
- viability, T/C [44]: 34.4%
- viability, T/C [45]: 32.3%
- viability, T/C [46]: 33.2%
- viability, T/C [47]: 26.4%
- viability, T/C [48]: 9.54%
- viability, T/C [49]: 23.6%
- viability, T/C [50]: 23.8%
- viability, T/C [51]: 25.4%
- viability, T/C [52]: 21.6%
- viability, T/C [53]: 19.4%
- viability, T/C [54]: 5.35%
- viability, T/C [55]: 19.9%
- viability, T/C [56]: 19.8%
- viability, T/C [57]: 17.6%
- viability, T/C [58]: 20.3%
- viability, T/C [59]: 14.9%
- viability, T/C [60]: 5.66%

Compound: CC1COCCN1c1cc(C2(S(C)(=N)=O)CC2)nc(-c2ccnc3[nH]ccc23)n1 (stereo not drawn) + CNC(=O)c1ccc(Nc2nc(OC3CCCC3)c3c(-c4ccc5nc(C)oc5c4)c[nH]c3n2)c(OC)c1
- IC50 (second compound 0.0316 µM): 2200 nM
- IC50 (second compound 0.1 µM): < 31.6 nM
- IC50 (second compound 0.316 µM): < 31.6 nM
- IC50 (second compound 1 µM): < 31.6 nM
- IC50 (second compound 3.16 µM): < 31.6 nM
- IC50 (second compound 10 µM): < 31.6 nM
- viability, T/C [25]: 70.2%
- viability, T/C [26]: 84.7%
- viability, T/C [27]: 75.5%
- viability, T/C [28]: 69.8%
- viability, T/C [29]: 40.9%
- viability, T/C [30]: 22.5%
- viability, T/C [31]: 47.2%
- viability, T/C [32]: 50.9%
- viability, T/C [33]: 42.7%
- viability, T/C [34]: 44.6%
- viability, T/C [35]: 24.3%
- viability, T/C [36]: 15%
- viability, T/C [37]: 43.8%
- viability, T/C [38]: 41.5%
- viability, T/C [39]: 39.1%
- viability, T/C [40]: 30%
- viability, T/C [41]: 20.5%
- viability, T/C [42]: 11.4%
- viability, T/C [43]: 34.4%
- viability, T/C [44]: 37.4%
- viability, T/C [45]: 28.3%
- viability, T/C [46]: 22.6%
- viability, T/C [47]: 13%
- viability, T/C [48]: 6.42%
- viability, T/C [49]: 29%
- viability, T/C [50]: 21%
- viability, T/C [51]: 17.2%
- viability, T/C [52]: 11.7%
- viability, T/C [53]: 8.18%
- viability, T/C [54]: 3.92%
- viability, T/C [55]: 22.4%
- viability, T/C [56]: 19.5%
- viability, T/C [57]: 14.1%
- viability, T/C [58]: 12.6%
- viability, T/C [59]: 7.52%
- viability, T/C [60]: 3.99%

Compound: NC(=O)C(=Cn1cnc(-c2cc(C(F)(F)F)cc(C(F)(F)F)c2)n1)c1cncnc1 + CNC(=O)c1ccc(Nc2nc(OC3CCCC3)c3c(-c4ccc5nc(C)oc5c4)c[nH]c3n2)c(OC)c1
- IC50 (second compound 0.0316 µM): 19.4 nM
- IC50 (second compound 0.1 µM): < 9.49 nM
- IC50 (second compound 0.316 µM): < 9.49 nM
- IC50 (second compound 1 µM): < 9.49 nM
- IC50 (second compound 3.16 µM): < 9.49 nM
- IC50 (second compound 10 µM): < 9.49 nM
- viability, T/C [1]: 52.2%
- viability, T/C [2]: 49.7%
- viability, T/C [3]: 35.9%
- viability, T/C [4]: 25%
- viability, T/C (second compound 0.0316 µM, first compound 0.949 µM): 9.87%
- viability, T/C (second compound 0.0316 µM, first compound 3 µM): 8.36%
- viability, T/C [5]: 37.7%
- viability, T/C [6]: 34.3%
- viability, T/C [7]: 27.8%
- viability, T/C [8]: 19.4%
- viability, T/C (second compound 0.1 µM, first compound 0.949 µM): 8.19%
- viability, T/C (second compound 0.1 µM, first compound 3 µM): 5.57%
- viability, T/C [9]: 35.7%
- viability, T/C [10]: 24.1%
- viability, T/C [11]: 21.8%
- viability, T/C [12]: 14.3%
- viability, T/C (second compound 0.316 µM, first compound 0.949 µM): 4.08%
- viability, T/C (second compound 0.316 µM, first compound 3 µM): 1.39%
- viability, T/C [13]: 24.4%
- viability, T/C [14]: 21.2%
- viability, T/C [15]: 15.8%
- viability, T/C [16]: 6.44%
- viability, T/C (second compound 1 µM, first compound 0.949 µM): 2.52%
- viability, T/C (second compound 1 µM, first compound 3 µM): 1.7%
- viability, T/C [17]: 19.2%
- viability, T/C [18]: 13.5%
- viability, T/C [19]: 6.99%
- viability, T/C [20]: 2.31%
- viability, T/C (second compound 3.16 µM, first compound 0.949 µM): 2.53%
- viability, T/C (second compound 3.16 µM, first compound 3 µM): 1.98%
- viability, T/C [21]: 17.8%
- viability, T/C [22]: 13.8%
- viability, T/C [23]: 5.85%
- viability, T/C [24]: 1.75%
- viability, T/C (second compound 10 µM, first compound 0.949 µM): 1.16%
- viability, T/C (second compound 10 µM, first compound 3 µM): 0.58%
